Our source for the Activity and IC50 values is ChEMBL document CHEMBL1143303 (Bioorg Med Chem Lett, 2009).

Activity calls are given as the source filed them. No cut-off for these calls is given here.

The target in test [1] is DNA (cytosine-5)-methyltransferase 1 (Homo sapiens) (UniProt P26358). As to the kind of experiment: Inhibition of C1226 catalytic site of DNMT1.
The target is the same in test [2]. As to the kind of experiment: Inhibition of C1226 catalytic site of DNMT1 in presence of S-adenosyl methionine.
Test [3] deals with Orphan methyltransferase M.SssI (Spiroplasma monobiae) (UniProt P15840). As to the kind of experiment: Inhibition of Spiroplasma sp. MQ-1 M.SssI up to 100 uM.
The target in test [4] is Orphan methyltransferase M.SssI (Spiroplasma monobiae, UniProt P15840). As to the kind of experiment: (§1) Inhibition of Spiroplasma sp. MQ-1 M.SssI.
Test [5] deals with MV4-11. As to the kind of experiment: Induction of global DNA hypomethylation in human MV411 cells at 1 uM after 72 hrs by LC-MS/MS analysis relative to control. Type of test: functional, cell-based.
Test [6] concerns MV4-11. As to the kind of experiment: Decrease in global DNA methylation in human MV411 cells at 30 uM after 72 hrs by LC-MS/MS analysis relative to control. Type of test: functional. Also on record: scale not given: the % may be the effect or the level left.
Test [7] concerns the target Orphan methyltransferase M.SssI (Spiroplasma monobiae) (UniProt P15840). Described as §1.
The test system of test [8] is MV4-11. As to the kind of experiment: Decrease in global DNA methylation in human MV411 cells at 3 uM after 72 hrs by LC-MS/MS analysis relative to control. On the set-up: scale not given: the % may be the effect or the level left. Type of test: functional.

DNA (cytosine-5)-methyltransferase 1 (Homo sapiens), sequence (P26358 whole entry): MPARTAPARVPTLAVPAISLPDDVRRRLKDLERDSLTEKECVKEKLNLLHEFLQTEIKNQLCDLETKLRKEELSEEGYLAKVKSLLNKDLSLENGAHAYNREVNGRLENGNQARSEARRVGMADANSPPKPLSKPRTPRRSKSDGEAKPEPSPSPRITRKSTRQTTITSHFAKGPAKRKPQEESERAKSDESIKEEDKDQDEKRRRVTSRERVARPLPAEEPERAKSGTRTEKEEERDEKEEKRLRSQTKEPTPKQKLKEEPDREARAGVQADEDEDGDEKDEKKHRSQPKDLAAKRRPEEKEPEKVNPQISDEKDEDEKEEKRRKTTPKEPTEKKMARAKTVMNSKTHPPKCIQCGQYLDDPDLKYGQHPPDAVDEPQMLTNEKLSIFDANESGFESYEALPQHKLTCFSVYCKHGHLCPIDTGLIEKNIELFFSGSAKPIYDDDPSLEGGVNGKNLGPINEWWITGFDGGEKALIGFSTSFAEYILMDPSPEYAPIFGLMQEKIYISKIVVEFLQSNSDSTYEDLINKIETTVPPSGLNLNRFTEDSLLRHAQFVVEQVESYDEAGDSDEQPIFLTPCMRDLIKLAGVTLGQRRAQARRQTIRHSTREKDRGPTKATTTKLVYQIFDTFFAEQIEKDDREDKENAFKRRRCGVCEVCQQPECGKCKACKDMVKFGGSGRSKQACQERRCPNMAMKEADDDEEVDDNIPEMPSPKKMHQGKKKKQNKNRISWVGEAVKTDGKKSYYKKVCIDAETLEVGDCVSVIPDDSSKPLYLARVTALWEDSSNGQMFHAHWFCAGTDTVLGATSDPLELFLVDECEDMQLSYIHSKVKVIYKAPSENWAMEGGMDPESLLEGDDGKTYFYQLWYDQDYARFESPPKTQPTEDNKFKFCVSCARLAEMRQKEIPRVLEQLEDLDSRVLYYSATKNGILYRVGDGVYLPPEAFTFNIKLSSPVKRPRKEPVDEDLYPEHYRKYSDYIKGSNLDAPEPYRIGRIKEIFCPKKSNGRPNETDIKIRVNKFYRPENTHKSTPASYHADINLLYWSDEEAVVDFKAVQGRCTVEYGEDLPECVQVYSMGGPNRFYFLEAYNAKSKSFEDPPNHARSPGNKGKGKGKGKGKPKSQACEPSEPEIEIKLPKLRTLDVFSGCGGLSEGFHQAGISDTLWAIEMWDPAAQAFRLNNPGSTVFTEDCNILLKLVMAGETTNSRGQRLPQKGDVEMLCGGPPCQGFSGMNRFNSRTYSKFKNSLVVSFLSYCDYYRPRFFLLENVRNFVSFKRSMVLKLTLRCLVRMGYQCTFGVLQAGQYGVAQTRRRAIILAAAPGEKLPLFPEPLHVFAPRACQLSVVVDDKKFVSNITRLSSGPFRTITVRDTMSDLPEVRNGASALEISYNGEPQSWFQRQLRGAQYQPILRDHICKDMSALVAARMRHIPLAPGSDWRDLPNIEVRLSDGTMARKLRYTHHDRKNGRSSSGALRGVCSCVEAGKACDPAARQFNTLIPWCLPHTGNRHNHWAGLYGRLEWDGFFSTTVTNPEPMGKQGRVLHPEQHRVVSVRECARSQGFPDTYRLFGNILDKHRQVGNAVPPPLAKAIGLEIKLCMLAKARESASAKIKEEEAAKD
Orphan methyltransferase M.SssI, sequence (P15840 whole entry): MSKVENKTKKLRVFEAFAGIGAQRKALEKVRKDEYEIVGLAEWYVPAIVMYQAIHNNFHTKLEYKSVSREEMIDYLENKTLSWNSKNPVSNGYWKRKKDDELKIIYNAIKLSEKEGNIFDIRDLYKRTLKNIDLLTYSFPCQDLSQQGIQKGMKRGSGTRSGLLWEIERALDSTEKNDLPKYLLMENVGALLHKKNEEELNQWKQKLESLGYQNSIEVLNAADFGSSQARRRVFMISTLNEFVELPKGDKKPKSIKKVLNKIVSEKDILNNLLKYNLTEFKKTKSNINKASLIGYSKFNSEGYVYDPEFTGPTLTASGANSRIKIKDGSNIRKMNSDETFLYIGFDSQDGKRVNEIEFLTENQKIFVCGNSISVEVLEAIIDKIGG
Orphan methyltransferase M.SssI (Spiroplasma monobiae), sequence (P15840 whole entry): as above

Take `COc1cc(CCC(=O)CC(=O)CCc2ccc(O)c(OC)c2)ccc1O`: the result in test [1] and in test [2] was Active.
For `COc1cc(CCC(=O)CC(O)CCc2ccc(O)c(OC)c2)ccc1O` (centres undefined), the result in test [1] and in test [2] was Active. In test [3], the result was inactive.
`O=C(/C=C/c1ccc(O)cc1)CC(=O)/C=C/c1ccc(O)cc1` [BISDEMETHOXYCURCUMIN]: in test [1], the outcome was Active. Further, in test [4], the IC50 (usually the concentration that inhibits the measured activity by half) came to 30 nM.
Regarding `COc1cc(/C=C/C(=O)CC(=O)/C=C/c2ccc(O)c(OC)c2)ccc1O` [CURCUMIN], the outcome in test [5] was inactive. Further, the result in test [1] was Active. The figures for the Activity in test [6], in test [7] and in test [8] were 15%, “Dose-dependent effect” and 15%, respectively.
With `COc1cc(/C=C/C(O)=C/C(=O)/C=C/c2ccc(O)cc2)ccc1O` [DEMETHOXYCURCUMIN], the outcome in test [1] was Active. Besides, in test [4], the IC50 came out at 30 nM.
